{"source": "PubChem BioAssay (NCI)", "experiment_in_all_cases": "growth of human tumour cells (NCI), 384-well format", "key": {"NCI-H460 NSCLC": {"tested_on": "NCI-H460 NSCLC"}, "SNB-75 CNS": {"tested_on": "SNB-75 CNS"}, "SF-539 CNS": {"tested_on": "SF-539 CNS"}, "RXF 393 renal": {"tested_on": "RXF 393 renal"}, "UACC-62 melanoma": {"tested_on": "UACC-62 melanoma"}, "OVCAR-5 ovarian": {"tested_on": "OVCAR-5 ovarian"}, "OVCAR-4 ovarian": {"tested_on": "OVCAR-4 ovarian"}, "SN12C renal": {"tested_on": "SN12C renal"}, "T-47D breast": {"tested_on": "T-47D breast"}, "NCI-H522 lung": {"tested_on": "NCI-H522 lung"}, "HCC-2998 colon": {"tested_on": "HCC-2998 colon"}, "NCI/ADR-RES ovarian": {"tested_on": "NCI/ADR-RES ovarian"}, "DU-145 prostate": {"tested_on": "DU-145 prostate"}, "SK-MEL-5 melanoma": {"tested_on": "SK-MEL-5 melanoma"}, "BT-549 breast": {"tested_on": "BT-549 breast"}, "CCRF-CEM leukemia": {"tested_on": "CCRF-CEM leukemia"}, "MOLT-4 leukemia": {"tested_on": "MOLT-4 leukemia"}, "HS 578T breast": {"tested_on": "HS 578T breast"}, "CAKI-1 renal": {"tested_on": "CAKI-1 renal"}, "KM12 colon": {"tested_on": "KM12 colon"}, "IGROV1 ovarian": {"tested_on": "IGROV1 ovarian"}, "SK-MEL-28 melanoma": {"tested_on": "SK-MEL-28 melanoma"}, "NCI-H322M lung": {"tested_on": "NCI-H322M lung"}, "SW-620 colon": {"tested_on": "SW-620 colon"}, "UACC-257 melanoma": {"tested_on": "UACC-257 melanoma"}, "HL-60(TB) leukemia": {"tested_on": "HL-60(TB) leukemia"}, "HT29 colon": {"tested_on": "HT29 colon"}, "MDA-MB-468 breast": {"tested_on": "MDA-MB-468 breast"}}, "note": "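GI50: concentration for 50% inhibition of growth. At the TGI there is no net growth.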", "data": [{"molecule": "Nc1ncn([C@@H]2S[C@H](CO)[C@@H](O)[C@@H]2F)c(=O)n1", "values": [{"measurement": "GI50", "setting": "NCI-H460 NSCLC", "value": 0.238, "unit": "µM"}, {"measurement": "TGI", "setting": "NCI-H460 NSCLC", "value": 0.724, "unit": "µM"}, {"measurement": "GI50", "setting": "SNB-75 CNS", "value": 15.6, "unit": "µM"}, {"measurement": "TGI", "setting": "SNB-75 CNS", "value": "> 100", "unit": "µM"}, {"measurement": "GI50", "setting": "SF-539 CNS", "value": 3.75, "unit": "µM"}, {"measurement": "TGI", "setting": "SF-539 CNS", "value": 18.6, "unit": "µM"}, {"measurement": "GI50", "setting": "RXF 393 renal", "value": 2.77, "unit": "µM"}, {"measurement": "TGI", "setting": "RXF 393 renal", "value": 44.8, "unit": "µM"}, {"measurement": "GI50", "setting": "UACC-62 melanoma", "value": 3.64, "unit": "µM"}, {"measurement": "TGI", "setting": "UACC-62 melanoma", "value": 19.7, "unit": "µM"}, {"measurement": "GI50", "setting": "OVCAR-5 ovarian", "value": 0.691, "unit": "µM"}, {"measurement": "TGI", "setting": "OVCAR-5 ovarian", "value": 7.73, "unit": "µM"}, {"measurement": "GI50", "setting": "OVCAR-4 ovarian", "value": "> 100", "unit": "µM"}, {"measurement": "TGI", "setting": "OVCAR-4 ovarian", "value": "> 100", "unit": "µM"}, {"measurement": "GI50", "setting": "SN12C renal", "value": 0.604, "unit": "µM"}, {"measurement": "TGI", "setting": "SN12C renal", "value": 2.91, "unit": "µM"}, {"measurement": "GI50", "setting": "T-47D breast", "value": 10.4, "unit": "µM"}, {"measurement": "TGI", "setting": "T-47D breast", "value": "> 100", "unit": "µM"}, {"measurement": "GI50", "setting": "NCI-H522 lung", "value": 0.628, "unit": "µM"}, {"measurement": "TGI", "setting": "NCI-H522 lung", "value": "> 100", "unit": "µM"}, {"measurement": "GI50", "setting": "HCC-2998 colon", "value": 0.267, "unit": "µM"}, {"measurement": "TGI", "setting": "HCC-2998 colon", "value": 14.1, "unit": "µM"}, {"measurement": "GI50", "setting": "NCI/ADR-RES ovarian", "value": 0.291, "unit": "µM"}, {"measurement": "TGI", "setting": "NCI/ADR-RES ovarian", "value": 1.38, "unit": "µM"}, {"measurement": "GI50", "setting": "DU-145 prostate", "value": 0.389, "unit": "µM"}, {"measurement": "TGI", "setting": "DU-145 prostate", "value": 3.95, "unit": "µM"}, {"measurement": "GI50", "setting": "SK-MEL-5 melanoma", "value": 0.435, "unit": "µM"}, {"measurement": "TGI", "setting": "SK-MEL-5 melanoma", "value": 2.76, "unit": "µM"}, {"measurement": "GI50", "setting": "BT-549 breast", "value": 1.34, "unit": "µM"}, {"measurement": "TGI", "setting": "BT-549 breast", "value": 8.75, "unit": "µM"}, {"measurement": "GI50", "setting": "CCRF-CEM leukemia", "value": 0.0266, "unit": "µM"}, {"measurement": "TGI", "setting": "CCRF-CEM leukemia", "value": 0.0961, "unit": "µM"}, {"measurement": "GI50", "setting": "MOLT-4 leukemia", "value": 0.0287, "unit": "µM"}, {"measurement": "TGI", "setting": "MOLT-4 leukemia", "value": 0.11, "unit": "µM"}, {"measurement": "GI50", "setting": "HS 578T breast", "value": 0.984, "unit": "µM"}, {"measurement": "TGI", "setting": "HS 578T breast", "value": "> 100", "unit": "µM"}, {"measurement": "GI50", "setting": "CAKI-1 renal", "value": 0.625, "unit": "µM"}, {"measurement": "TGI", "setting": "CAKI-1 renal", "value": "> 100", "unit": "µM"}, {"measurement": "GI50", "setting": "KM12 colon", "value": 1.41, "unit": "µM"}, {"measurement": "TGI", "setting": "KM12 colon", "value": "> 100", "unit": "µM"}, {"measurement": "GI50", "setting": "IGROV1 ovarian", "value": 2.03, "unit": "µM"}, {"measurement": "TGI", "setting": "IGROV1 ovarian", "value": "> 100", "unit": "µM"}, {"measurement": "GI50", "setting": "SK-MEL-28 melanoma", "value": 0.507, "unit": "µM"}, {"measurement": "TGI", "setting": "SK-MEL-28 melanoma", "value": 4.92, "unit": "µM"}, {"measurement": "GI50", "setting": "NCI-H322M lung", "value": 2.91, "unit": "µM"}, {"measurement": "TGI", "setting": "NCI-H322M lung", "value": "> 100", "unit": "µM"}, {"measurement": "GI50", "setting": "SW-620 colon", "value": 0.887, "unit": "µM"}, {"measurement": "TGI", "setting": "SW-620 colon", "value": "> 100", "unit": "µM"}, {"measurement": "GI50", "setting": "UACC-257 melanoma", "value": 58.7, "unit": "µM"}, {"measurement": "TGI", "setting": "UACC-257 melanoma", "value": "> 100", "unit": "µM"}, {"measurement": "GI50", "setting": "HL-60(TB) leukemia", "value": 0.241, "unit": "µM"}, {"measurement": "TGI", "setting": "HL-60(TB) leukemia", "value": 0.495, "unit": "µM"}, {"measurement": "GI50", "setting": "HT29 colon", "value": 2.38, "unit": "µM"}, {"measurement": "TGI", "setting": "HT29 colon", "value": "> 100", "unit": "µM"}, {"measurement": "GI50", "setting": "MDA-MB-468 breast", "value": 2.37, "unit": "µM"}]}]}
